Read-outs that look alike come from different tables or passages of the source. Where only a bound is given, the exact number is not on record here.

Consider 21 compounds from patent publication US20090304692A1, “TRIAZINE COMPOUNDS AS PI3 KINASE AND MTOR INHIBITORS” (Wyeth, priority 2008, published 2009).

One series deals with PI3K-α (Homo sapiens, UniProt P42336). Kind of series: PI3K-alpha fluorescence polarization assay. To be noted: read-out: IC50 PI3Kα. A general note: Polarisation of emitted light reports the rotation of a fluorescent probe.
Sequence of PI3K-α (P42336 whole entry, species assumed): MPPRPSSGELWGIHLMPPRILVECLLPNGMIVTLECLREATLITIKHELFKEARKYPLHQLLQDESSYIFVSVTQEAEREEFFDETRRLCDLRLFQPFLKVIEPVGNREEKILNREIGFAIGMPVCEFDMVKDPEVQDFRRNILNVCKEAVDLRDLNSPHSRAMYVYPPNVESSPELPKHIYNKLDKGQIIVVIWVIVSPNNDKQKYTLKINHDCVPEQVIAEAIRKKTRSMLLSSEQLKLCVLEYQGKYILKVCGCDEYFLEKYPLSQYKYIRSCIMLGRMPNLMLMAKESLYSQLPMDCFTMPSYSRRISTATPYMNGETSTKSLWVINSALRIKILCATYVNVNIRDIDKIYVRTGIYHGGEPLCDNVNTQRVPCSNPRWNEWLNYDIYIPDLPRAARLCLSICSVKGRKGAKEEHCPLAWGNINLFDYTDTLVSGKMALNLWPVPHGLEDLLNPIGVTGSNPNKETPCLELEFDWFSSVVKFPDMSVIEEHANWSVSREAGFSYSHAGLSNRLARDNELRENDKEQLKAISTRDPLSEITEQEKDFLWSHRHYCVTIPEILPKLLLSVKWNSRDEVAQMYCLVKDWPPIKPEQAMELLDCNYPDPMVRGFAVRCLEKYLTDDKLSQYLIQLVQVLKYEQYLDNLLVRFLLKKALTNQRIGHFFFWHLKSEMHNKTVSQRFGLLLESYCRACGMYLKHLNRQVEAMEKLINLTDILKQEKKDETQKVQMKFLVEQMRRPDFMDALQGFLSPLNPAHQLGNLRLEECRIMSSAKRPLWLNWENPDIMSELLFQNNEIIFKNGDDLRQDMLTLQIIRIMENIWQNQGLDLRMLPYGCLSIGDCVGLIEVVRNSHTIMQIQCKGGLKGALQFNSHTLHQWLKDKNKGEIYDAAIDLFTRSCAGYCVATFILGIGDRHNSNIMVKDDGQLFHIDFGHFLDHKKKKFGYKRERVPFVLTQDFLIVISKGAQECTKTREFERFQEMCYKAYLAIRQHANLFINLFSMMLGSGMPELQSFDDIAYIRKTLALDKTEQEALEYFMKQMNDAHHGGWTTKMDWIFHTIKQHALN
Sequence of PI3K-α (P27986 whole entry partner, species assumed): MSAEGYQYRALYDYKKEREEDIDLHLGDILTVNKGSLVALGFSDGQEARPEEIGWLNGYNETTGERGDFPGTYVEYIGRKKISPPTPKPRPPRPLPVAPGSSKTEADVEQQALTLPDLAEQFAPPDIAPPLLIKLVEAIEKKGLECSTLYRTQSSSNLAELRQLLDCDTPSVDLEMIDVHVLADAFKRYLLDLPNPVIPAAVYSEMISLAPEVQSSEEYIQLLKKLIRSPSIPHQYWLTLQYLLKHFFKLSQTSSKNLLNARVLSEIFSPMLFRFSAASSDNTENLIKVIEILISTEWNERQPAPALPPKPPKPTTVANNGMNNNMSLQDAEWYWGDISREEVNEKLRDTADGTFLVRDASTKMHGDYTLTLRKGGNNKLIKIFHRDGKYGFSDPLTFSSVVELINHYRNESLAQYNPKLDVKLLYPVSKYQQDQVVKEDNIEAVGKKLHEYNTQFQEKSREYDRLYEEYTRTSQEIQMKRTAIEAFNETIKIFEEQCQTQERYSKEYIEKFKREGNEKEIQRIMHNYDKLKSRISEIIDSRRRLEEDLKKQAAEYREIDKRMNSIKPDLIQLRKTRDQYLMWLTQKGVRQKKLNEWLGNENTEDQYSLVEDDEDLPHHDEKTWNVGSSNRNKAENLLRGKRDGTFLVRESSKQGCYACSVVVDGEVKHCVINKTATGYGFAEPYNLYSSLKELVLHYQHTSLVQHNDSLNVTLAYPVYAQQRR
Another series deals with Human mTOR (FLAG-TOR) (Homo sapiens, UniProt P42345). Kind of series: mTOR kinase assay (DELFIA format, purified enzyme). It is filed as biochemical. To be noted: read-out: IC50 mTOR.
Sequence of Human mTOR (FLAG-TOR) (P42345 1360-2549 limits assumed): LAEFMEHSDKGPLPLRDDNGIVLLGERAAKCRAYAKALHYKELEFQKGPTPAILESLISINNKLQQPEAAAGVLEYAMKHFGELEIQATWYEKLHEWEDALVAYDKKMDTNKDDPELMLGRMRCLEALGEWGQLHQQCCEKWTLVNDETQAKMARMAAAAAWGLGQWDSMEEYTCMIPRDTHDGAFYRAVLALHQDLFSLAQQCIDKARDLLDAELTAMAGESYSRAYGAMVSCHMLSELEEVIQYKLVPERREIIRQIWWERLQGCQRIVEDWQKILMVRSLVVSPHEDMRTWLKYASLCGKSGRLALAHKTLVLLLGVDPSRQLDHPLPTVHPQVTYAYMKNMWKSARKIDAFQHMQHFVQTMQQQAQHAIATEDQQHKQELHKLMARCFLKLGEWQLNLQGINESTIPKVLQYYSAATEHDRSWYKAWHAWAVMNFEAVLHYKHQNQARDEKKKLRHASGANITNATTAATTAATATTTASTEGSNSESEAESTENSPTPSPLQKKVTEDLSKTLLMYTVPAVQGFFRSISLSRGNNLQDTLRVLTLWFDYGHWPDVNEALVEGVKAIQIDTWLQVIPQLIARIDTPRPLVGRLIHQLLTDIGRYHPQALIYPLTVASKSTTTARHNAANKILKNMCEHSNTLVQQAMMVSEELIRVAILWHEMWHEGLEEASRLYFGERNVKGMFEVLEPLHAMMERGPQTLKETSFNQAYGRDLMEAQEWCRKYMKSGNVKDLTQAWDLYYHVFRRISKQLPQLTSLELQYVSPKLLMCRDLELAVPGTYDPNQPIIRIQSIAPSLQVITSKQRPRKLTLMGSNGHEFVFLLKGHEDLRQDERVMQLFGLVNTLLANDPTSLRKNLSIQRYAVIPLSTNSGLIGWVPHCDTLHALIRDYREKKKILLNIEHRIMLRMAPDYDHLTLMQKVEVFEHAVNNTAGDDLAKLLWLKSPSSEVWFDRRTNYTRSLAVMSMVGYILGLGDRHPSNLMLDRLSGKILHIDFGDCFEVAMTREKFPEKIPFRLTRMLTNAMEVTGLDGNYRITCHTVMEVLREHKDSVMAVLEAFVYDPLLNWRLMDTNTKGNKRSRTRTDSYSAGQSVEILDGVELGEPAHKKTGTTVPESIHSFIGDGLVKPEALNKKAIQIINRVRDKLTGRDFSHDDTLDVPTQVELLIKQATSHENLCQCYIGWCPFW
For series [1], the system named is human prostate PC3-mm2 tumor cell line. Put plainly: In vitro cell culture growth assay (MTS), PC3-mm2. It is filed as cell-based. To be noted: Homo sapiens, PC3MM2, 72 h, MTS cell growth assay, three days after drug treatment; read-out: IC50 PC3-mm2. (Tetrazolium assays rely on reduction of a dye to a coloured formazan, in cell work by metabolically active cells.)

For series [2], the system named is human breast MDA-MB-361 tumor cell line. Put plainly: In vitro cell culture growth assay (MTS), MDA-MB-361. It counts as cell-based. To be noted: Homo sapiens, MDA-MB-361, 72 h; MTS cell growth assay, three days after drug treatment; read-out: IC50 MDA-MB-361.
The target in a further series is PI3K-γ (Homo sapiens, UniProt P48736). Kind of series: PI3K-gamma fluorescence polarization assay. To be noted: read-out: IC50 PI3Kγ.
Sequence of PI3K-γ (P48736 whole entry, species assumed): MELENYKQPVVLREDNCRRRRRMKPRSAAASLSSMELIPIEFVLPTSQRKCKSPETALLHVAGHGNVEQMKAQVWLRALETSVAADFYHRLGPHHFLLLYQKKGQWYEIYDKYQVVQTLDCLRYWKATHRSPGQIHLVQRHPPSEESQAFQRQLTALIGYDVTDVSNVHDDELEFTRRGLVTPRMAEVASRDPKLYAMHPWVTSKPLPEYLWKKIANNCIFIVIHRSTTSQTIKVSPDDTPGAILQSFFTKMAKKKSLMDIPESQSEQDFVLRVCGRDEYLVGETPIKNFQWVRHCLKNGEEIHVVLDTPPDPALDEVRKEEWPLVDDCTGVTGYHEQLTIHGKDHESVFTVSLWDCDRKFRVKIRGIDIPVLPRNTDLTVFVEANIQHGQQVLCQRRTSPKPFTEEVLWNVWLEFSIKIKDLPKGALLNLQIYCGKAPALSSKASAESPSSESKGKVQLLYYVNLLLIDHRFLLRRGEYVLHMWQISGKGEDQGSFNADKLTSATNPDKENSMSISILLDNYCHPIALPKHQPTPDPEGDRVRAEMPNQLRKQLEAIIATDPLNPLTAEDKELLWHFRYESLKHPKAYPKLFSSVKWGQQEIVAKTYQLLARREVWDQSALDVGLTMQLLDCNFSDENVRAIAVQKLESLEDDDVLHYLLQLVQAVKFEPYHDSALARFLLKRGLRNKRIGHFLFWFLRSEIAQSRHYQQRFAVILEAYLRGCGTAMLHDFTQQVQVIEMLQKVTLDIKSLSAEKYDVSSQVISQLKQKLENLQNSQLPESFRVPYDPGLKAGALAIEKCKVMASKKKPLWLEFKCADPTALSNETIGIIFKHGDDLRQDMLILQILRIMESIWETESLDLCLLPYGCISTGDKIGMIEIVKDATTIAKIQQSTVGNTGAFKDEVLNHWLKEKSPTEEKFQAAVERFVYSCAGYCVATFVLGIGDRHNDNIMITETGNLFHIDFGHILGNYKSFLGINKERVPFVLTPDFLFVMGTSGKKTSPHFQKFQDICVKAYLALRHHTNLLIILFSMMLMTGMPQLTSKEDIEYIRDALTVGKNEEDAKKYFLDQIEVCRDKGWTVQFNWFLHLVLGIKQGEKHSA
Series [3] concerns human prostate LNCap tumor cell line. Put plainly: In vitro cell culture growth assay (MTS), LNCap. The settings on record: Homo sapiens, LNCaP, 72 h, read-out: IC50 LNCap.
In a further series the target is human SMG-1 (hSMG-1) (Homo sapiens, UniProt Q96Q15). Put plainly: hSMG-1 kinase assay (DELFIA). It counts as biochemical.
In series [4] the test system is human tumor xenograft models. To be noted: cited from earlier work.

In general, IC50 refers to the concentration that inhibits the measured activity by half. As a reminder, the melting point is the temperature of the solid-liquid transition. In turn, `O=C(Nc1ccncc1)Nc1ccc(-c2nc(N3CCOCC3)nc(N3CC4CCC(C3)O4)n2)cc1` [Example 48, 1-{4-[4-morpholin-4-yl-6-(8-oxa-3-azabicyclo[3.2.1]oct-3-yl)-1,3,5-triazin-2-yl]phenyl}-3-pyridin-4-ylurea] returned a melting point of 258 °C. Further, the IC50 on PI3K-α was 6 nM. Besides, the IC50 at Human mTOR (FLAG-TOR) was 1.8 nM. Moreover, in series [1], the half-inhibitory concentration (IC50) was 48 nM. Also, the IC50 in [2] worked out at 38 nM. The IC50 at PI3K-γ was determined as 40 nM.
The compound `O=C(Nc1ccncc1)Nc1ccc(-c2nc(OC3CCOCC3)nc(N3CCOCC3)n2)cc1` [Example 59, 1-{4-[4-morpholin-4-yl-6-(tetrahydro-2H-pyran-4-yloxy)-1,3,5-triazin-2-yl]phenyl}-3-pyridin-4-ylurea] displayed a melting point of 238 °C. For the same compound, on PI3K-α, the IC50 came out at 3 nM. In addition, the concentration for half-maximal inhibition (IC50) at Human mTOR (FLAG-TOR) stood at 1.05 nM. In addition, in [1], the IC50 was determined as 16 nM. In [2], the IC50 stood at 14 nM. Moreover, at PI3K-γ, the IC50 is 30 nM.
Consider `O=C(Nc1ccncc1)Nc1ccc(-c2nc(N3CCC3)nc(N3CCOCC3)n2)cc1` [Example 140, 1-[4-(4-azetidin-1-yl-6-morpholin-4-yl-1,3,5-triazin-2-yl)phenyl]-3-pyridin-4-ylurea], for which the melting point was determined as 212 °C. For the same compound, the IC50 on PI3K-α worked out at 27 nM. In addition, the IC50 on Human mTOR (FLAG-TOR) is 27 nM. For the same compound, in series [1], the IC50 turned out to be 279 nM. Besides, in series [2], the IC50 was 225 nM. The IC50 at PI3K-γ was 100 nM.
As to `COC(=O)c1ccc(NC(=O)Nc2ccc(-c3nc(N4CCC4)nc(N4CCOCC4)n3)cc2)cc1` [Example 141, methyl 4-({[4-(4-azetidin-1-yl-6-morpholin-4-yl-1,3,5-triazin-2-yl)phenyl]carbamoyl}amino)benzoate], the melting point is 212 °C. The IC50 at PI3K-α amounted to 241 nM. The IC50 at Human mTOR (FLAG-TOR) worked out at 26 nM. Besides, the IC50 on PI3K-γ is 3380 nM.
`O=C(Nc1ccc(C(=O)O)cc1)Nc1ccc(-c2nc(N3CCC3)nc(N3CCOCC3)n2)cc1` [Example 195, 4-({[4-(4-azetidin-1-yl-6-morpholin-4-yl-1,3,5-triazin-2-yl)phenyl]carbamoyl}amino) benzoic acid] displayed a melting point of 204 °C. The IC50 on PI3K-α is 115 nM. Moreover, at Human mTOR (FLAG-TOR), the IC50 came out at 21 nM. Further, on PI3K-γ, the IC50 was 498 nM.
On to `CN1CCN(C(=O)c2ccc(NC(=O)Nc3ccc(-c4nc(N5CCC5)nc(N5CCOCC5)n4)cc3)cc2)CC1` [Example 196, 1-[4-(4-azetidin-1-yl-6-morpholin-4-yl-1,3,5-triazin-2-yl)phenyl]-3-{4-[(4-methylpiperazin-1-yl)carbonyl]phenyl}urea], for which the melting point was 170 °C. The IC50 at PI3K-α worked out at 6 nM. Besides, at Human mTOR (FLAG-TOR), the IC50 amounted to 13 nM. The IC50 in series [1] amounted to 82 nM. For the same compound, the IC50 in series [2] was found to be 50 nM. Further, on PI3K-γ, the IC50 was 55 nM.
In turn, `CC(C)(C)OC(=O)N1C[C@H]2C[C@@H]1CN2c1nc(-c2ccc(NC(=O)Nc3ccncc3)cc2)nc(N2CCOCC2)n1` [Example 256, tert-butyl(1R,4R)-5-(4-morpholin-4-yl-6-{4-[(pyridin-4-ylcarbamoyl)amino]phenyl}-1,3,5-triazin-2-yl)-2,5-diazabicyclo[2.2.1]heptane-2-carboxylate] gave a melting point of 192 °C. Moreover, the IC50 on PI3K-α was found to be 68 nM. Besides, at Human mTOR (FLAG-TOR), the IC50 was 32 nM. The IC50 on PI3K-γ came to 182 nM.
On the same counts, the results for `CC(=O)c1ccc(NC(=O)Nc2ccc(-c3nc(N4CCOCC4)nc(N4C[C@H]5C[C@@H]4CN5C(=O)OC(C)(C)C)n3)cc2)cc1` [Example 257, tert-butyl (1R,4R)-5-[4-(4-{[(4-acetylphenyl)carbamoyl]amino}phenyl)-6-morpholin-4-yl-1,3,5-triazin-2-yl]-2,5-diazabicyclo[2.2.1]heptane-2-carboxylate] are 202 °C, 90 nM, 85 nM and 323 nM.
`O=C(Nc1ccc(C(=O)NCc2ccccn2)cc1)Nc1ccc(-c2nc(N3CCOCC3)nc(N3CCOCC3)n2)cc1` [Example 263, 4-({[4-(4,6-dimorpholin-4-yl-1,3,5-triazin-2-yl)phenyl]carbamoyl}amino)-N-(pyridin-2-ylmethyl)benzamide]: the melting point fell in the range of 296 to 298 °C. The IC50 on PI3K-α was found to be 3 nM. Besides, at Human mTOR (FLAG-TOR), the 50% inhibitory concentration (IC50) was found to be 1 nM. Further, in series [1], the half-maximal inhibitory concentration (IC50) came to 31 nM. Further, the IC50 in series [2] is 68 nM. In addition, the IC50 on PI3K-γ was 20 nM.
Take `COC(=O)c1ccc(NC(=O)Nc2ccc(-c3nc(C(C)C)nc(N4CCOCC4)n3)cc2)cc1` [Example 300, methyl 4-[({4-[4-(1-methylethyl)-6-morpholin-4-yl-1,3,5-triazin-2-yl]phenyl}carbamoyl)amino]benzoate]: the melting point was 218 °C. Moreover, at PI3K-α, the 50% inhibitory concentration (IC50) is 39 nM. For the same compound, the IC50 on Human mTOR (FLAG-TOR) amounted to 5.3 nM. Moreover, the IC50 in [1] stood at 340 nM. Moreover, the IC50 in series [2] turned out to be 297 nM. The IC50 on PI3K-γ worked out at 106 nM.
On to `CNC(=O)Nc1ccc(-c2nc(-c3ccc(NC(=O)Nc4cccc(C(N)=O)c4)cc3)nc(N3C(C)COCC3C)n2)cc1` (stereo not drawn) [Example 469, 3-[({4-[4-(3,5-dimethylmorpholin-4-yl)-6-{4-[(methylcarbamoyl)amino]phenyl}-1,3,5-triazin-2-yl]phenyl}carbamoyl)amino]benzamide], for which the IC50 at Human mTOR (FLAG-TOR) worked out at 23 nM; in series [3], 2800 nM; against human SMG-1 (hSMG-1), 130 nM.
On the same counts, the results for `CNC(=O)Nc1ccc(-c2nc(-c3ccc(NC(=O)Nc4ccc(C(N)=O)cc4)cc3)nc(N3C(C)COCC3C)n2)cc1` (stereo not drawn) [Example 470, 4-[({4-[4-(3,5-dimethylmorpholin-4-yl)-6-{4-[(methylcarbamoyl)amino]phenyl}-1,3,5-triazin-2-yl]phenyl}carbamoyl)amino]benzamide] are 7 nM, 1000 nM and 195 nM.
`CNC(=O)Nc1ccc(-c2nc(-c3ccc(NC(=O)Nc4ccncc4)cc3)nc(N3CC4CCC(C3)O4)n2)cc1` [Example 471, 1-methyl-3-{4-[4-(8-oxa-3-azabicyclo[3.2.1]oct-3-yl)-6-{4-[(pyridin-4-ylcarbamoyl)amino]phenyl}-1,3,5-triazin-2-yl]phenyl}urea]: the half-maximal inhibitory concentration (IC50) in series [3] came out at 130 nM; at human SMG-1 (hSMG-1), 5 nM.
As for `CNC(=O)Nc1ccc(-c2nc(-c3ccc(NC(=O)Nc4ccncc4)cc3)nc(N3C(C)COCC3C)n2)cc1` (stereo not drawn) [Example 472, 1-{4-[4-(3,5-dimethylmorpholin-4-yl)-6-{4-[(methylcarbamoyl)amino]phenyl}-1,3,5-triazin-2-yl]phenyl}-3-pyridin-4-ylurea], the IC50 at Human mTOR (FLAG-TOR) is 35 nM; in series [3] it was 3800 nM; at human SMG-1 (hSMG-1), 200 nM.
For the compound `O=C(Nc1ccc(-c2nc(N3CCOCC3)nc(N3CCOCC3)n2)cc1)C(F)F` [Example 473, N-[4-(4,6-dimorpholin-4-yl-1,3,5-triazin-2-yl)phenyl]-2,2-difluoroacetamide], the IC50 was 35 nM at Human mTOR (FLAG-TOR) and 3650 nM against human SMG-1 (hSMG-1).
On the same counts, the results for `c1cc(-c2nc(N3CCOCC3)nc(N3CCOCC3)n2)ccc1NC1=NCCN1` [Example 474, N-[4-(4,6-dimorpholin-4-yl-1,3,5-triazin-2-yl)phenyl]-4,5-dihydro-1H-imidazol-2-amine] are 48 nM and 5650 nM.
On the same counts, the results for `c1cc(-c2nc(N3CCOCC3)nc(N3CCOCC3)n2)ccc1-c1nn[nH]n1` [Example 475, 2,4-dimorpholin-4-yl-6-[4-(2H-tetrazol-5-yl)phenyl]-1,3,5-triazine] are 18500 nM and greater than 20000 nM.
On the same counts, the results for `CNC(=O)Nc1ccc(-c2nc(N3CCOCC3)nc(N3CCOCC3)n2)cc1` [Example 476, 1-[4-(4,6-dimorpholin-4-yl-1,3,5-triazin-2-yl)phenyl]-3-methylurea] are 5 nM and 19 nM.
Take `O=C(Cc1ccc(-c2nc(N3CCOCC3)nc(N3CCOCC3)n2)cc1)Nc1cccnc1` [Example 477, 2-[4-(4,6-dimorpholin-4-yl-1,3,5-triazin-2-yl)phenyl]-N-pyridin-3-ylacetamide]: the values for the 50% inhibitory concentration (IC50) at Human mTOR (FLAG-TOR) and at human SMG-1 (hSMG-1) were 14000 nM and 9250 nM, respectively.
On to `Cn1c(=O)n(-c2ccc(C(C)(C)C#N)cc2)c2c3cc(-c4cnc5ccccc5c4)ccc3ncc21` [NVP-BEZ-235, 2-methyl-2-(4-(3-methyl-2-oxo-8-(quinolin-3-yl)-2,3-dihydro-1H-imidazo[4,5-c]quinolin-1-yl)phenyl)propanenitrile], for which the “activity against human tumor models” value in series [4] (prostrate (PC-3) and glioblastoma (U-87) xenografts) was “demonstrated activity”.
In the case of `Oc1cccc(-c2nc(N3CCOCC3)c3oc4ncccc4c3n2)c1` [PI103, 3-(4-(4-morpholinyl)pyrido[3′,2′:4,5]furo[3,2-d]pyrimidin-2-yl)phenol], in series [4] (I.P. dosing in mice, U87MG, PC3, MDA-MB-468, MDA-MB-435, HCT 116, SKOV3, IGROV-1 xenografts), the “activity against human tumor models” value was “demonstrated activity”.
